How the values were obtained:
CB2R = CB2R (Mus musculus, UniProt P47936); set-up: species or system female CD1 mice; settings: female, CD1, mouse, in vivo
Protocol: (§1) Female CD1 mice (10 to 12 weeks old, 20 to 25 g) received an injection of 300 to 400 kBq of [^18F]1 or [^18F]2 with specific activities of >450 GBq/μmol in 200 μL of 0.9% NaCl/10% EtOH into the tail vein. The animals were anesthetized (CO2/O2 mixture) for blood and urine sampling and euthanized by luxation of the cervical spine at 5, 30, and 60 min after injection (p.i.) (n = 2 to 5 per time). The organs of interest were removed and weighed, and the activities were measured by γ counting using a calibrated γ counter Wallac Wizard 1470 (Perkin Elmer Inc., Waltham, MA, USA). The percentage of injected dose per gram of wet tissue (% ID/g wet weight) was calculated.
(3 mg/kg i.p. in 0.9% saline, 10 min before the injection of the radiotracer) at 60 min p.i. (n = 2 to 5). The unpaired two-tailed t test was used to compare the results between the groups. We considered differences to be significant at a p value <0.05.

[1] = Ex vivo metabolite studies (radio-HPLC of plasma and brain extracts); assay type: in vivo, CD1 mice; settings: mice
Protocol: [^18F]1 and [^18F]2 (100 to 150 MBq, 250 to 450 GBq/μmol in 150 μL NaCl 0.9%/10% EtOH) were injected via the tail vein in CD1 male mice (10 to 12 weeks old, 20 to 25 g). Blood and urine samples were obtained at 30 and 60 min p.i. (n = 3 per time point). Twofold extractions of plasma and brain samples (n = 3) were performed using ice-cold MeCN according to the standard protocol established in our group (see [47, 48]). Briefly, plasma samples were obtained by centrifugation of the blood at 4,000×g at 4°C for 10 min, and brain samples were homogenized in ice-cold 50 mM Tris–HCl (pH = 7.4). The samples were vortexed, incubated on ice, and centrifuged at 10,000×g for 3 min. Supernatants were collected, and the precipitates were re-dissolved in ice-cold MeCN for the second extraction. The supernatants from the two extractions were combined, concentrated under a gentle argon stream at 65°C, and analyzed by radio-TLC and gradient analytical HPLC (see ‘Radiochemistry’ section). Aliquots from each extraction supernatant and the precipitates were also taken and quantified by γ counting (Wallac Wizard 1470, Perkin Elmer Inc., Waltham, MA, USA) along with the respective aliquots of intact plasma samples and brain homogenates. A moderate recovery of radioactivity was obtained from plasma samples and brain homogenates (60% to 70%). Radiometabolites of [^18F]17 in the plasma, spleen, and brain were assessed at 30 and 60 min p.i.

[2] = In vitro radiochemical stability; assay type: physicochemical; settings: all selected media, 40°C, up to 90 min
Protocol: In vitro radiochemical stabilities of [^18F]1 and [^18F]2 were investigated in 0.9% NaCl solution, Dulbecco’s phosphate buffer, 0.01 M Tris–HCl (pH 7.4 at 21°C), and EtOH at 40°C for 90 min. Samples were taken at 15, 30, 60, and 90 min after incubation and analyzed by radio-TLC and radio-HPLC.

[3] = Ex vivo biodistribution (organ distribution) in mice; settings: i.v. 300 to 400 kBq, female CD1 mice
Protocol: as §1

Sequence of CB2R (P47936 whole entry): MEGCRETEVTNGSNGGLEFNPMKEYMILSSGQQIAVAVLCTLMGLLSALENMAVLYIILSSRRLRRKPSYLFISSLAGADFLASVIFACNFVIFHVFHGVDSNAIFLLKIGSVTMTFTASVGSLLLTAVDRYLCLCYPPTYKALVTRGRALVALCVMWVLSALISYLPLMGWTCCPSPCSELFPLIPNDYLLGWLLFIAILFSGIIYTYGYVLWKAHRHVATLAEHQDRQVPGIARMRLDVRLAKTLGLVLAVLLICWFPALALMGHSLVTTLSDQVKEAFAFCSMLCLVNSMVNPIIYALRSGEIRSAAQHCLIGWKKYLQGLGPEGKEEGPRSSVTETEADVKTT

CCn1c2ccccc2c2cc(NC(=O)CCc3nc(-c4ccc([18F])cc4Br)no3)ccc21 [[^18F]2]
Radioactivity uptake, Adrenals, Blocking 60 min (CB2R; 3 mg/kg, 1 h): 3.34 ± 0.15 % ID/g
Radioactivity uptake, Bladder, Blocking 60 min (CB2R; 3 mg/kg, 1 h): 1.77 ± 0.16 % ID/g
Radioactivity uptake, Blood, Blocking 60 min (CB2R; 3 mg/kg, 1 h): 3.40 ± 0.21 % ID/g
Radioactivity uptake, Brain, Blocking 60 min (CB2R; 3 mg/kg, 1 h): 0.28 ± 0.03 % ID/g
Radioactivity uptake, Femur, Blocking 60 min (CB2R; 3 mg/kg, 1 h): 0.61 ± 0.09 % ID/g
Radioactivity uptake, Gonads, Blocking 60 min (CB2R; 3 mg/kg, 1 h): 1.97 ± 0.39 % ID/g
Radioactivity uptake, Heart, Blocking 60 min (CB2R; 3 mg/kg, 1 h): 1.53 ± 0.13 % ID/g
Radioactivity uptake, Kidney, Blocking 60 min (CB2R; 3 mg/kg, 1 h): 4.91 ± 1.51 % ID/g
Radioactivity uptake, Large intestine, Blocking 60 min (CB2R; 3 mg/kg, 1 h): 1.78 ± 0.23 % ID/g
Radioactivity uptake, Liver, Blocking 60 min (CB2R; 3 mg/kg, 1 h): 10.51 ± 1.10 % ID/g
Radioactivity uptake, Lung, Blocking 60 min (CB2R; 3 mg/kg, 1 h): 2.31 ± 0.19 % ID/g
Radioactivity uptake, Muscle, Blocking 60 min (CB2R; 3 mg/kg, 1 h): 0.70 ± 0.06 % ID/g
Radioactivity uptake, Pancreas, Blocking 60 min (CB2R; 3 mg/kg, 1 h): 1.02 ± 0.11 % ID/g
Radioactivity uptake, Plasma, Blocking 60 min (CB2R; 3 mg/kg, 1 h): 5.78 ± 0.07 % ID/g
Radioactivity uptake, Small intestine, Blocking 60 min (CB2R; 3 mg/kg, 1 h): 29.64 ± 5.10 % ID/g
Radioactivity uptake, Spleen, Blocking 60 min (CB2R; 3 mg/kg, 1 h): 0.74 ± 0.10 % ID/g
Radioactivity uptake, Stomach, Blocking 60 min (CB2R; 3 mg/kg, 1 h): 3.24 ± 2.10 % ID/g
Radioactivity uptake, Thymus, Blocking 60 min (CB2R; 3 mg/kg, 1 h): 1.77 ± 0.14 % ID/g
% control, Adrenals (CB2R; 60 min): 137 % control
% control, Bladder (CB2R; 60 min): 122 % control
% control, Blood (CB2R; 60 min): 136 % control
% control, Brain (CB2R; 60 min): 108 % control
% control, Femur (CB2R; 60 min): 106 % control
% control, Gonads (CB2R; 60 min): 86 % control
% control, Heart (CB2R; 60 min): 106 % control
% control, Kidney (CB2R; 60 min): 124 % control
% control, L. intestine (CB2R; 60 min): 96 % control
% control, Liver (CB2R; 60 min): 168 % control
% control, Lung (CB2R; 60 min): 92 % control
% control, Muscle (CB2R; 60 min): 99 % control
% control, Pancreas (CB2R; 60 min): 125 % control
% control, Plasma (CB2R; 60 min): 111 % control
% control, S. intestine (CB2R; 60 min): 109 % control
% control, Spleen (CB2R; 60 min): 110 % control
% control, Stomach (CB2R; 60 min): 146 % control
% control, Thymus (CB2R; 60 min): 171 % control
Percentage of total activity in brain samples, 30 min p.i. ([1]; brain homogenate extract, 30 min p.i. of [18F]1 or [18F]2, radio-HPLC): 88%
Percentage of total activity in brain samples, 60 min p.i. ([1]; brain homogenate extract, 60 min p.i. of [18F]1 or [18F]2, radio-HPLC): 43%
Relative percentage of intact tracer and radiometabolites, Plasma 30 min p.i. ([1]; plasma, 30 min p.i. of [18F]1 or [18F]2, radio-HPLC): 2%
Relative percentage of intact tracer and radiometabolites, Plasma 60 min p.i. ([1]; plasma, 60 min p.i. of [18F]1 or [18F]2, radio-HPLC): 2%
intact tracer [2]: ≥ 98%
Radioactivity uptake, Adrenals, Control 5 min [3]: 7.67 ± 2.18 % ID/g
Radioactivity uptake, Adrenals, Control 30 min [3]: 5.38 ± 0.61 % ID/g
Radioactivity uptake, Adrenals, Control 60 min [3]: 2.44 ± 0.72 % ID/g
Radioactivity uptake, Bladder, Control 5 min [3]: 1.01 ± 0.29 % ID/g
Radioactivity uptake, Bladder, Control 30 min [3]: 2.02 ± 0.39 % ID/g
Radioactivity uptake, Bladder, Control 60 min [3]: 1.45 ± 0.57 % ID/g
Radioactivity uptake, Blood, Control 5 min [3]: 2.29 ± 0.48 % ID/g
Radioactivity uptake, Blood, Control 30 min [3]: 3.42 ± 0.39 % ID/g
Radioactivity uptake, Blood, Control 60 min [3]: 2.50 ± 0.42 % ID/g
Radioactivity uptake, Brain, Control 5 min [3]: 0.62 ± 0.22 % ID/g
Radioactivity uptake, Brain, Control 30 min [3]: 0.86 ± 0.34 % ID/g
Radioactivity uptake, Brain, Control 60 min [3]: 0.26 ± 0.07 % ID/g
Radioactivity uptake, Femur, Control 5 min [3]: 1.63 ± 0.93 % ID/g
Radioactivity uptake, Femur, Control 30 min [3]: 1.10 ± 0.03 % ID/g
Radioactivity uptake, Femur, Control 60 min [3]: 0.58 ± 0.11 % ID/g
Radioactivity uptake, Gonads, Control 5 min [3]: 1.14 ± 0.32 % ID/g
Radioactivity uptake, Gonads, Control 30 min [3]: 2.08 ± 0.03 % ID/g
Radioactivity uptake, Gonads, Control 60 min [3]: 2.29 ± 0.57 % ID/g
Radioactivity uptake, Heart, Control 5 min [3]: 3.42 ± 0.57 % ID/g
Radioactivity uptake, Heart, Control 30 min [3]: 2.32 ± 0.24 % ID/g
Radioactivity uptake, Heart, Control 60 min [3]: 1.45 ± 0.20 % ID/g
Radioactivity uptake, Kidney, Control 5 min [3]: 5.86 ± 0.96 % ID/g
Radioactivity uptake, Kidney, Control 30 min [3]: 5.90 ± 0.15 % ID/g
Radioactivity uptake, Kidney, Control 60 min [3]: 3.96 ± 1.25 % ID/g
Radioactivity uptake, Large intestine, Control 5 min [3]: 0.46 ± 0.06 % ID/g
Radioactivity uptake, Large intestine, Control 30 min [3]: 1.25 ± 0.30 % ID/g
Radioactivity uptake, Large intestine, Control 60 min [3]: 1.86 ± 0.36 % ID/g
Radioactivity uptake, Liver, Control 5 min [3]: 31.31 ± 9.91 % ID/g
Radioactivity uptake, Liver, Control 30 min [3]: 8.84 ± 0.83 % ID/g
Radioactivity uptake, Liver, Control 60 min [3]: 6.27 ± 0.68 % ID/g
Radioactivity uptake, Lung, Control 5 min [3]: 4.62 ± 0.21 % ID/g
Radioactivity uptake, Lung, Control 30 min [3]: 3.36 ± 0.02 % ID/g
Radioactivity uptake, Lung, Control 60 min [3]: 2.52 ± 0.60 % ID/g
Radioactivity uptake, Muscle, Control 5 min [3]: 1.00 ± 0.30 % ID/g
Radioactivity uptake, Muscle, Control 30 min [3]: 0.92 ± 0.15 % ID/g
Radioactivity uptake, Muscle, Control 60 min [3]: 0.70 ± 0.27 % ID/g
Radioactivity uptake, Pancreas, Control 5 min [3]: 2.04 ± 0.59 % ID/g
Radioactivity uptake, Pancreas, Control 30 min [3]: 1.71 ± 0.15 % ID/g
Radioactivity uptake, Pancreas, Control 60 min [3]: 0.82 ± 0.21 % ID/g
Radioactivity uptake, Plasma, Control 5 min [3]: 3.87 ± 0.90 % ID/g
Radioactivity uptake, Plasma, Control 30 min [3]: 6.82 ± 1.19 % ID/g
Radioactivity uptake, Plasma, Control 60 min [3]: 5.22 ± 0.73 % ID/g
Radioactivity uptake, Small intestine, Control 5 min [3]: 3.86 ± 2.64 % ID/g
Radioactivity uptake, Small intestine, Control 30 min [3]: 20.78 ± 3.28 % ID/g
Radioactivity uptake, Small intestine, Control 60 min [3]: 27.31 ± 2.44 % ID/g
Radioactivity uptake, Spleen, Control 5 min [3]: 10.42 ± 7.67 % ID/g
Radioactivity uptake, Spleen, Control 30 min [3]: 1.34 ± 0.10 % ID/g
Radioactivity uptake, Spleen, Control 60 min [3]: 0.68 ± 0.11 % ID/g
Radioactivity uptake, Stomach, Control 5 min [3]: 1.57 ± 1.18 % ID/g
Radioactivity uptake, Stomach, Control 30 min [3]: 2.09 ± 0.81 % ID/g
Radioactivity uptake, Stomach, Control 60 min [3]: 2.21 ± 0.43 % ID/g
Radioactivity uptake, Thymus, Control 5 min [3]: 2.30 ± 1.06 % ID/g
Radioactivity uptake, Thymus, Control 30 min [3]: 1.96 ± 0.22 % ID/g
Radioactivity uptake, Thymus, Control 60 min [3]: 1.04 ± 0.08 % ID/g
